Patent publication US9593136B2 (priority 2011, dated 2017)
Converted amounts (≈) assume the structure as drawn. Read-outs that look alike come from different tables or passages of the source.

What was measured:
Mtb H37Rv (ATCC 27294) = assay: microbe, parasite or virus in culture; format: cell-based, Mycobacterium tuberculosis; conditions: for MIC: Mycobacterium tuberculosis
Acinetobacter = assay: microbe, parasite or virus in culture; format: cell-based; conditions: for MIC: Acinetobacter, read-out: MIC Acinetobacter
MRSA NRS 70 = assay: microbe, parasite or virus in culture; format: cell-based, S. aureus; conditions: for MIC: Staphylococcus aureus
E. coli k12 = assay: microbe, parasite or virus in culture; format: cell-based; conditions: for MIC: Escherichia coli, K12, read-out: MIC E. coli k12
B. anthracis = assay: microbe, parasite or virus in culture; format: cell-based, Bacillus anthracis; conditions: for MIC: Bacillus anthracis, read-out: MIC B. anthracis
E. coli tolc = assay: microbe, parasite or virus in culture; format: cell-based; conditions: for MIC: Escherichia coli, read-out: MIC E. coli tolc
S. aureus (MSSA) = assay: microbe, parasite or virus in culture; format: cell-based; conditions: for MIC: Staphylococcus aureus, MSSA, read-out: MIC S. aureus (MSSA)
E. faecalis = assay: microbe, parasite or virus in culture; format: cell-based; conditions: for MIC: Enterococcus faecalis, read-out: MIC E. faecalis
S. pneumonia = assay: MIC against S. pneumonia; format: cell-based; conditions: Table 1
Experimental: (§1) The following compounds have been synthesized and tested for their activities against bacteria (Table 1) and their abilities to inhibit Dxr (Table 2). MIC is determined as described in Yendapally et al. (Journal of Medicinal Chemistry 2008, 51, 1487); and IC50 is determined as described in Henriksson et al. (Journal of Biological Chemistry 2007, 282, 19905).

Klebsiella = assay: MIC against Klebsiella; format: cell-based; conditions: Table 1
Experimental: as §1

P. aeruginosa = assay: MIC against P. aeruginosa; format: cell-based; conditions: Pseudomonas aeruginosa; Table 1
Experimental: as §1

M. tuberculosis Dxr = M. tuberculosis Dxr (Mycobacterium tuberculosis, UniProt P9WNS1); assay: biochemical; conditions: IC50 (μM)
Chain of M. tuberculosis Dxr (P9WNS1 whole entry, looked up): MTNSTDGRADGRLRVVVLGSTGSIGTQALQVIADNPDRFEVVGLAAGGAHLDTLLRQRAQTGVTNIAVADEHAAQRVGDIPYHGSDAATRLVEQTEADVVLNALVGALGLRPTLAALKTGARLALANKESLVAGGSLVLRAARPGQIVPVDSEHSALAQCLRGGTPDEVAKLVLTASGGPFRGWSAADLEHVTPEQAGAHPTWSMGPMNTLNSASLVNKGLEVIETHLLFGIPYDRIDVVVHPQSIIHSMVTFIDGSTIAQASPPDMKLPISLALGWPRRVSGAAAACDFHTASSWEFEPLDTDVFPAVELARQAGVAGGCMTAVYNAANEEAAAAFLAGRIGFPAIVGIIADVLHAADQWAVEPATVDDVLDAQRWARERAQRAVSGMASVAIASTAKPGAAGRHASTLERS

[1] = read-out: Mtb MIC (ug/mL) (7H9)
[2] = read-out: Mtb MIC (ug/mL) (GAST)
[3] = read-out: MIC M. tuberculosis (H37Rv)

SMILES	MIC (Mtb H37Rv (ATCC 27294); read-out: MIC H37 Rv) [µg/mL]	MIC (Acinetobacter) [µg/mL]	MIC (MRSA NRS 70; read-out: MIC MRSA NRS 70) [µg/mL]	MIC (E. coli k12) [µg/mL]	MIC (S. pneumonia) [µg/mL]	MIC (Klebsiella) [µg/mL]	MIC (B. anthracis) [µg/mL]	MIC (E. coli tolc) [µg/mL]	MIC (S. aureus (MSSA)) [µg/mL]	MIC (P. aeruginosa) [µg/mL]	MIC (E. faecalis) [µg/mL]	other results
CC(=O)N(O)CCCP(=O)(OCOC(=O)C(C)(C)C)OCOC(=O)C(C)(C)C [Compound 24]	–	–	–	–	–	–	–	–	–	–	–	MIC M. tuberculosis (H37Rv) (Mtb H37Rv (ATCC 27294)): 50 to 100 µg/mL; antitubercular activity (in words) (Mtb H37Rv (ATCC 27294)): better antitubercular activity; MIC Acinetobacter (Acinetobacter): >200 µg/mL; MIC S. aureus (MRSA) (MRSA NRS 70): 50 µg/mL (≈ 118 µM); MIC E. coli k12 (E. coli k12): >200 µg/mL; MIC B. anthracis (B. anthracis): 200 µg/mL (≈ 470 µM); MIC E. coli tolc (E. coli tolc): 100 µg/mL (≈ 235 µM); MIC S. aureus (MSSA) (S. aureus (MSSA)): 100 µg/mL (≈ 235 µM); MIC E. faecalis (E. faecalis): >200 µg/mL
CC(=O)N(O)CCCP(=O)(OC(C)OC(=O)OC(C)(C)C)OC(C)OC(=O)OC(C)(C)C (stereo not shown) [Compound 25]	–	–	–	–	–	–	–	–	–	–	–	MIC M. tuberculosis (H37Rv) (Mtb H37Rv (ATCC 27294)): 400 µg/mL (≈ 824 µM); MIC Acinetobacter (Acinetobacter): >200 µg/mL; MIC S. aureus (MRSA) (MRSA NRS 70): 50 µg/mL (≈ 103 µM); MIC E. coli k12 (E. coli k12): >200 µg/mL; MIC B. anthracis (B. anthracis): 200 µg/mL (≈ 412 µM); MIC E. coli tolc (E. coli tolc): >200 µg/mL; MIC S. aureus (MSSA) (S. aureus (MSSA)): 100 µg/mL (≈ 206 µM); MIC E. faecalis (E. faecalis): >200 µg/mL
CC(=O)N(O)CCCP(=O)(OCOC(=O)c1ccccc1)OCOC(=O)c1ccccc1 [Compound 26]	–	–	–	–	–	–	–	–	–	–	–	MIC M. tuberculosis (H37Rv) (Mtb H37Rv (ATCC 27294)): 25 to 100 µg/mL; antitubercular activity (in words) (Mtb H37Rv (ATCC 27294)): better antitubercular activity; MIC Acinetobacter (Acinetobacter): 200 µg/mL (≈ 430 µM); MIC S. aureus (MRSA) (MRSA NRS 70): >200 µg/mL; MIC E. coli k12 (E. coli k12): >200 µg/mL; MIC B. anthracis (B. anthracis): 100 µg/mL (≈ 215 µM); MIC E. coli tolc (E. coli tolc): 50 µg/mL (≈ 107 µM); MIC S. aureus (MSSA) (S. aureus (MSSA)): >200 µg/mL; MIC E. faecalis (E. faecalis): >200 µg/mL
CC(=O)N(O)CCCP(=O)(OC(C)OC(=O)c1ccccc1)OC(C)OC(=O)c1ccccc1 (stereo not shown) [Compound 27]	–	–	–	–	–	–	–	–	–	–	–	MIC M. tuberculosis (H37Rv) (Mtb H37Rv (ATCC 27294)): 100 to 200 µg/mL; MIC Acinetobacter (Acinetobacter): 100 µg/mL (≈ 203 µM); MIC S. aureus (MRSA) (MRSA NRS 70): >200 µg/mL; MIC E. coli k12 (E. coli k12): 50 µg/mL (≈ 101 µM); MIC B. anthracis (B. anthracis): 50 µg/mL (≈ 101 µM); MIC E. coli tolc (E. coli tolc): 50 µg/mL (≈ 101 µM); MIC S. aureus (MSSA) (S. aureus (MSSA)): >200 µg/mL; MIC E. faecalis (E. faecalis): >200 µg/mL
CCOP(=O)(CCCN(O)C(=O)c1ccccc1)OCC [ERJ 58]	> 200	> 200	> 200	> 200	> 200	> 200	> 200	> 200	> 200	> 200	> 200	MIC (Mtb H37Rv (ATCC 27294); [1]): > 500 µg/mL; MIC (Mtb H37Rv (ATCC 27294); [2]): 31.2 µg/mL (≈ 99.1 µM)
CCOP(=O)(CCCN(O)C(=O)CCc1ccccc1)OCC [ERJ 70]	> 200	> 200	> 200	> 200	> 200	> 200	> 200	> 200	> 200	> 200	> 200	MIC (Mtb H37Rv (ATCC 27294); [1]): 3.12 µg/mL (≈ 9.1 µM); MIC (Mtb H37Rv (ATCC 27294); [2]): > 200 µg/mL
CCOP(=O)(CCCN(O)C(=O)CCCc1ccccc1)OCC [ERJ 79]	> 200	> 200	50 (≈ 140 µM)	> 200	> 200	> 200	> 200	> 200	100 (≈ 280 µM)	> 200	> 200	MIC (Mtb H37Rv (ATCC 27294); [1]): 3.12 µg/mL (≈ 8.74 µM); MIC (Mtb H37Rv (ATCC 27294); [2]): > 200 µg/mL
CCOP(=O)(CCCN(O)C(=O)Cc1ccccc1)OCC [ERJ 91]	> 200	> 200	50 (≈ 152 µM)	> 200	> 200	> 200	> 200	> 200	100 (≈ 304 µM)	> 200	> 200	–
CCOP(=O)(CCCN(O)C(=O)c1cccc2ccccc12)OCC [ERJ 93]	> 200	> 200	50 (≈ 137 µM)	> 200	> 200	> 200	200 (≈ 547 µM)	> 200	100 (≈ 274 µM)	> 200	200 (≈ 547 µM)	–
CCOP(=O)(CCCN(O)C(=O)c1ccc2ccccc2c1)OCC [ERJ 96]	> 200	> 200	> 200	> 200	> 200	> 200	> 200	> 200	> 200	> 200	> 200	–
CCOP(=O)(CCCN(O)C(=O)c1ccc(-c2ccccc2)cc1)OCC [ERJ 104]	> 200	> 200	100 (≈ 255 µM)	> 200	> 200	> 200	> 200	100 (≈ 255 µM)	100 (≈ 255 µM)	> 200	> 200	–
CC(=O)N(O)CCCP(=O)(O)O [FR900098, reference compound]	–	50 (≈ 254 µM)	–	200 (≈ 1010 µM)	–	–	50 (≈ 254 µM)	12.5 (≈ 63.4 µM)	> 200	–	> 200	antitubercular activity (in words) (Mtb H37Rv (ATCC 27294)): inactive; MIC (Mtb H37Rv (ATCC 27294); [3]): > 500 µg/mL; MIC (Mtb H37Rv (ATCC 27294); read-out: Mtb MIC (ug/mL)): > 200 µg/mL; MIC (MRSA NRS 70; read-out: MIC S. aureus (MRSA)): 50 µg/mL (≈ 254 µM); IC50 (M. tuberculosis Dxr): 2 µM
O=CN(O)CCCP(=O)(O)O [Fosmidomycin, reference compound]	–	100 (≈ 546 µM)	–	12.5 (≈ 68.3 µM)	–	–	0.78 (≈ 4.26 µM)	6.25 (≈ 34.1 µM)	> 200	–	> 200	MIC (Mtb H37Rv (ATCC 27294); read-out: MIC 7H9 (μg/mL)): > 500 µg/mL; MIC (Mtb H37Rv (ATCC 27294); read-out: MIC GAST/Fe (μg/mL)): > 500 µg/mL; MIC (Mtb H37Rv (ATCC 27294); [3]): > 500 µg/mL; MIC (MRSA NRS 70; read-out: MIC S. aureus (MRSA)): 200 µg/mL (≈ 1090 µM); activity against B. anthracis (MIC) (B. anthracis): 0.78 lg/mL
CCOP(=O)(CCCN(OCc1ccccc1)C(C)=O)OCC [GSJ 20 (Rotamer B)]	> 200	> 200	> 200	> 200	> 200	> 200	> 200	> 200	> 200	> 200	> 200	MIC (Mtb H37Rv (ATCC 27294); read-out: Mtb MIC (ug/mL)): > 200 µg/mL
CCOP(=O)(CCCN(OCCc1ccccc1)C(C)=O)OCC [GSJ 25]	> 200	> 200	> 200	> 200	> 200	> 200	> 200	> 200	> 200	> 200	> 200	MIC (Mtb H37Rv (ATCC 27294); read-out: Mtb MIC (ug/mL)): > 200 µg/mL
CCOP(=O)(CCCN(OCCCCc1ccccc1)C(C)=O)OCC [GSJ 26]	–	> 200	200 (≈ 519 µM)	> 200	> 200	> 200	> 200	200 (≈ 519 µM)	100 (≈ 259 µM)	> 200	200 (≈ 519 µM)	MIC H37 Rv (Mtb H37Rv (ATCC 27294)): Some act 200; Mtb MIC (ug/mL) (Mtb H37Rv (ATCC 27294)): SA 200
